From US10745410B2, “Substituted [5,6]cyclic-4(3H)-pyrimidinones as anticancer agents” (ZENJI RESEARCH LABORATORIES, priority 2017, dated 2020)
Counter-ions that a name gives are not always drawn.

Experiments:
CDC7/DBF4 = CDC7/DBF4 (Homo sapiens (Human), UniProt O00311); experiment: CDC7 biochemical assay (ADP-Glo, MCM2 substrate); settings: ATP 500 uM; MCM2 400 ug/ml; CDC7/DBF4 200 nM; 180 mins at 27° C.; read-out: CDC7 enzyme IC50 (nm)
Protocol: Biochemical Assay Method N-terminal GST-tagged CDC7 and DBF4 full-length proteins were co-expressed by baculovirus insect expression (BV) system and purified by GST affinity column. Used MCM2 protein as substrate, N-terminal His tag MCM2 was expressed by E. coli and purified by His affinity column. Biochemical assay was tested in the U-shaped bottom 384 plate (corning, #4514) with a final volume of […] at 27° C. The concentration of CDC7 was optimized by the enzyme titration experiment. CDC7 kinase was diluted in assay buffer (40 mM Tris.HCl pH 7.25, 100 ug/mL BSA, and 20 mM MgCl2) to get 2.4× enzyme solutions. Compounds were dissolved in 10 mM DMSO, and series diluted in DMSO from 0.3 mM to 0.3 nM (5 concentration pts); All dilutions were diluted 30× in assay buffer to get 6× compounds solutions. MCM2 Substrate and ATP were diluted to 2.4× mixed solution. Add 2 ul test compound solution to 384 assay plate, then add 5 ul substrate/ATP mixed solution, at last add 5 ul enzyme solution, incubate at 27° C. for 180 mins. Transfer 5 ul reaction solution to another 384 assay plate, then add 5 ul ADP-Glo™ Reagent (Promega) to each well and incubate at 27° C. for 40 mins; Add 10 ul Kinase Detection Reagent (Promega) to each well and incubate at 27° C. for 30 mins. 10 uM CDC7-3 compound was used as 100% inhibition while 100% DMSO control was used as 0% inhibition. Each test has three replications at least. The final concentration of the reagents: ATP was 500 uM; MCM2 was 400 ug/ml; CDC7/DBF4 was 200 nM. The data were obtained by TECAN F200 and calculated by GraphPad Prism 5.0; IC50 values were adjusted by Dose-response-Inhibition-Variable slope model.

COLO 205 cell line = experiment: Proliferation experiment in COLO 205 cell line (CellTiter-Glo); format: cell-based; settings: Homo sapiens, COLO 205 cells, 72 hours
Protocol: Proliferation experiment in COLO 205 cell line Tissue Culture. Cells were maintained in 10% FBS (Gibco #10099141)/RPMI 1640 (Gibco # A10491). The cells were harvested with 0.25% Trypsin/EDTA (Amresco #9002077), re-suspended in 10% FBS/RPMI 1640 and plated at 8,000 cells per well in 90 ul of media in a 96-well black plate with clear bottoms (Corning #3603). The cells were allowed to incubate overnight in a 37° C., 5% CO2 humidified tissue culture incubator. A 10-point test compound curve was prepared by serial diluting a 10 mM stock 1:3 in DMSO in a 384-well compound plate (costar #3656). The serial diluted compounds were transferred to the plate containing medium for further dilution. The final concentration was from 10 uM to 0.000508 uM. The serial diluted compounds were transferred to the plate containing cells by using a volley ([…]) and the cells were placed back in the incubator for 72 hours. Luminescent detection was carried out with CellTiter-Glo® Luminescent Cell Viability Assay (promega # G7572). Signal was read on TECAN Infinite F200.

Sequence of CDC7/DBF4 (O00311 whole entry): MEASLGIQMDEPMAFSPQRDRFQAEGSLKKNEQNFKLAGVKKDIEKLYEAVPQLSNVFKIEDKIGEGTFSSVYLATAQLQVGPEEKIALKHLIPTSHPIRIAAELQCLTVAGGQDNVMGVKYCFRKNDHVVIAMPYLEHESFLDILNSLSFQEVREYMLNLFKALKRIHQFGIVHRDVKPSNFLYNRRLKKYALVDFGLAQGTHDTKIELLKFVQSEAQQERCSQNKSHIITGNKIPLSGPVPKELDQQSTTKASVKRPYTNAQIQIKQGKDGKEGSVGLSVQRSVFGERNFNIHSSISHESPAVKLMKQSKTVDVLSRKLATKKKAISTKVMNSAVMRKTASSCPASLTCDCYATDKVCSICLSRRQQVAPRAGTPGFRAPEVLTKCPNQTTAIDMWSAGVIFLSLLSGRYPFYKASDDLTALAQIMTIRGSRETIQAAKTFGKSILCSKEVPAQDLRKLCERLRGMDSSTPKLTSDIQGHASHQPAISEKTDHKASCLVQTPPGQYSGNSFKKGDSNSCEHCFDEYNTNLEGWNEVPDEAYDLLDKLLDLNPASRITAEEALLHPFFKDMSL
Sequence of CDC7/DBF4 (Q9UBU7 whole entry partner): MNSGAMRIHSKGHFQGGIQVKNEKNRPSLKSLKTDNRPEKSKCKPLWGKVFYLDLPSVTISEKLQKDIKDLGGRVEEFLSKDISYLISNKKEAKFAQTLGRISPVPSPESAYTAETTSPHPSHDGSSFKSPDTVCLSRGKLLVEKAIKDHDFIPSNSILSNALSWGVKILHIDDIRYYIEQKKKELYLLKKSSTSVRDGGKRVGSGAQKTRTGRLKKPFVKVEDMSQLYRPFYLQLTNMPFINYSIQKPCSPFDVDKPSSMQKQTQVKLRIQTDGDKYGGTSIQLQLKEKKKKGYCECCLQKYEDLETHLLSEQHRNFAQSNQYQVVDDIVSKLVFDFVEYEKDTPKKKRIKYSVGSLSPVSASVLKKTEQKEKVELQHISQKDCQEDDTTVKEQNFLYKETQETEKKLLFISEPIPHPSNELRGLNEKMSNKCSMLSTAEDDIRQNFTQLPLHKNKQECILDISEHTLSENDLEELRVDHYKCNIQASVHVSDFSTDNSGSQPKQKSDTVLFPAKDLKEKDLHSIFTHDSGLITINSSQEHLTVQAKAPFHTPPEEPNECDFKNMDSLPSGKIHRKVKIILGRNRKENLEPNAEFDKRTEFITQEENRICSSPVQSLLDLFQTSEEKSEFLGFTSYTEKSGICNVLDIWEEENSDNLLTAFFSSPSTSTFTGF

`N[C@H](c1nc2cc(-c3ccncc3F)sc2c(=O)[nH]1)C1CC1` [Compound 25, (S)-2-(amino(cyclopropyl)methyl)-6-(3-fluoropyridin-4-yl)thieno[3,2-d]pyrimidin-4(3H)-one hydrochloride] showed an IC50 (CDC7/DBF4) of under 100 nM and a GI50 (COLO 205 cell line) of under 100 nM.

For `CC[C@H](N)c1nc2cc(-c3ccncc3F)sc2c(=O)[nH]1` [Compound 13b, (S)-2-(1-aminopropyl)-6-(3-fluoropyridin-4-yl)thieno[3,2-d]pyrimidin-4(3H)-one hydrochloride], the IC50 (CDC7/DBF4) was under 100 nM and the GI50 (COLO 205 cell line) was under 100 nM.

`C[C@H](N)c1nc2cc(-c3ccncc3F)sc2c(=O)[nH]1` [Compound 21, (S)-2-(1-aminoethyl)-6-(3-fluoropyridin-4-yl)thieno[3,2-d]pyrimidin-4(3H)-one hydrochloride] showed an IC50 (CDC7/DBF4) of 100 to 1000 nM and a GI50 (COLO 205 cell line) of 100 to 1000 nM.

`CC(C)[C@H](N)c1nc2cc(N3CCNCC3)sc2c(=O)[nH]1` [Compound 67, (S)-2-(1-amino-2-methylpropyl)-6-(piperazin-1-yl)thieno[3,2-d]pyrimidin-4(3H)-one hydrochloride] showed an IC50 (CDC7/DBF4) of 1000 to 10000 nM and a GI50 (COLO 205 cell line) of over 10000 nM.

For `Cc1cc(-c2cc3nc([C@@H](N)C(C)C)[nH]c(=O)c3s2)ccn1` [Compound 7b, (S)-2-(1-amino-2-methylpropyl)-6-(2-methylpyridin-4-yl)thieno[3,2-d]pyrimidin-4(3H)-one hydrochloride], the GI50 (COLO 205 cell line) was 1000 to 10000 nM.

Work on `CC(C)[C@H](N)c1nc2cc(-c3c[nH]cn3)sc2c(=O)[nH]1` [Compound 45, (S)-2-(1-amino-2-methylpropyl)-6-(1H-imidazol-4-yl)thieno[3,2-d]pyrimidin-4(3H)-one hydrochloride] yielded an IC50 (CDC7/DBF4) of over 10000 nM and a GI50 (COLO 205 cell line) of over 10000 nM.

With `CC(C)[C@H](N)c1nc2cc(-c3cc[nH]c3)sc2c(=O)[nH]1` [Compound 65, (S)-2-(1-amino-2-methylpropyl)-6-(1H-pyrrol-3-yl)thieno[3,2-d]pyrimidin-4(3H)-one hydrochloride] the IC50 (CDC7/DBF4) was over 10000 nM and the GI50 (COLO 205 cell line) was over 10000 nM.

`CC(C)[C@H](N)c1nc2cc(-c3ccnnc3)sc2c(=O)[nH]1` [Compound 49, (S)-2-(1-amino-2-methylpropyl)-6-(pyridazin-4-yl)thieno[3,2-d]pyrimidin-4(3H)-one hydrochloride] was tested, and the IC50 (CDC7/DBF4) was 1000 to 10000 nM and the GI50 (COLO 205 cell line) was 1000 to 10000 nM.

`CC(C)(N)c1nc2cc(-c3ccnc(F)c3)sc2c(=O)[nH]1` [Compound 39, 2-(2-aminopropan-2-yl)-6-(2-fluoropyridin-4-yl)thieno[3,2-d]pyrimidin-4(3H)-one hydrochloride] showed an IC50 (CDC7/DBF4) of 1000 to 10000 nM and a GI50 (COLO 205 cell line) of 1000 to 10000 nM.

`CC(C)[C@H](N)c1nc2cc(-c3cnoc3)sc2c(=O)[nH]1` [Compound 7e, (S)-2-(1-amino-2-methylpropyl)-6-(isoxazol-4-yl)thieno[3,2-d]pyrimidin-4(3H)-one hydrochloride] gave an IC50 (CDC7/DBF4) of over 10000 nM and a GI50 (COLO 205 cell line) of over 10000 nM.

With `CC(C)[C@H](N)c1nc2cc(-c3cc[nH]n3)sc2c(=O)[nH]1` [Compound 7c, (S)-2-(1-amino-2-methylpropyl)-6-(1H-pyrazol-3-yl)thieno[3,2-d]pyrimidin-4(3H)-one hydrochloride] the IC50 (CDC7/DBF4) was 1000 to 10000 nM and the GI50 (COLO 205 cell line) was over 10000 nM.

`CC(C)[C@H](N)c1nc2cc(-c3cn[nH]n3)sc2c(=O)[nH]1` [Compound 58, (S)-2-(1-amino-2-methylpropyl)-6-(2H-1,2,3-triazol-4-yl)thieno[3,2-d]pyrimidin-4(3H)-one hydrochloride] was tested, and the IC50 (CDC7/DBF4) was 1000 to 10000 nM and the GI50 (COLO 205 cell line) was 1000 to 10000 nM.

With `CC(C)[C@@H](N)c1nc2cc(-c3ccncc3F)sc2c(=O)[nH]1` [Compound 29, (R)-2-(1-amino-2-methylpropyl)-6-(3-fluoropyridin-4-yl)thieno[3,2-d]pyrimidin-4(3H)-one hydrochloride] the IC50 (CDC7/DBF4) was 1000 to 10000 nM and the GI50 (COLO 205 cell line) was 1000 to 10000 nM.

`CC(C)[C@H](N)c1nc2cc(-c3ccnc(Cl)c3)sc2c(=O)[nH]1` [Compound 7a, (S)-2-(1-amino-2-methylpropyl)-6-(2-chloropyridin-4-yl)thieno[3,2-d]pyrimidin-4(3H)-one hydrochloride] gave a GI50 (COLO 205 cell line) of 1000 to 10000 nM.

`CN[C@H](c1nc2cc(-c3ccnc(F)c3)sc2c(=O)[nH]1)C(C)C` [Compound 36, (S)-6-(2-fluoropyridin-4-yl)-2-(2-methyl-1-(methylamino)propyl)thieno[3,2-d]pyrimidin-4(3H)-one hydrochloride] gave a GI50 (COLO 205 cell line) of 1000 to 10000 nM.

`CC(C)[C@H](N)c1nc2cc(-c3cc(F)ncc3F)sc2c(=O)[nH]1` [Compound 7d, (S)-2-(1-amino-2-methylpropyl)-6-(2,5-difluoropyridin-4-yl)thieno[3,2-d]pyrimidin-4(3H)-one hydrochloride] was tested, and the IC50 (CDC7/DBF4) was 100 to 1000 nM and the GI50 (COLO 205 cell line) was 100 to 1000 nM.

In the case of `CC[C@H](N)c1nc2cc(-c3ccnc(F)c3)sc2c(=O)[nH]1` [Compound 13a, (S)-2-(1-aminopropyl)-6-(2-fluoropyridin-4-yl)thieno[3,2-d]pyrimidin-4(3H)-one hydrochloride], the GI50 (COLO 205 cell line) is reported as 100 to 1000 nM.

`CC(C)[C@H](N)c1nc2cc(-c3ccncn3)sc2c(=O)[nH]1` [Compound 53, (S)-2-(1-amino-2-methylpropyl)-6-(pyrimidin-4-yl)thieno[3,2-d]pyrimidin-4(3H)-one hydrochloride] showed an IC50 (CDC7/DBF4) of 100 to 1000 nM and a GI50 (COLO 205 cell line) of 100 to 1000 nM.
